Patent US20240417387A1, “SULFONYLPIPERAZINYL COMPOUNDS FOR TREATMENT OF BACTERIAL INFECTIONS” (Hoffmann-La Roche Inc., priority 2021, published 2024)
Values after ≈ are worked out from the molar mass of the structure shown.

Legend:
[1] = biological target: Escherichia coli UDP-2,3-diacylglucosamine hydrolase (LpxH) (Escherichia coli (strain K12), UniProt P43341); assay: Enzymatic IC50 assay of Escherichia coli LpxH (UMP/CMP-Glo luminescence); type: biochemical; conditions: Enzymatic IC50 against Escherichia coli LpxH; read-out: IC50 (converted)
Escherichia coli UDP-2,3-diacylglucosamine hydrolase (LpxH), sequence (P43341 whole entry): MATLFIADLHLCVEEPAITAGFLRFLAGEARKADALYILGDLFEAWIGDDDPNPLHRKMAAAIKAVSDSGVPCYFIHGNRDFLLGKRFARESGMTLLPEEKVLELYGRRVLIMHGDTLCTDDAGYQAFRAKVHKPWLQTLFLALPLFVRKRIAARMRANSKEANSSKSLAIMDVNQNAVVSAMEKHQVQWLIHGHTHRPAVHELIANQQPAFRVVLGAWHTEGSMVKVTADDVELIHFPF
Summary of the method: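 LpxH (2 nM) preincubated 10 min at room temperature with compound (100 μM to 1.7 nM) in Tris-HCl pH7.5 buffer with 2.5 mM MnCl2, then reacted with 5 μM UDP-DAG for 20 min. Reaction heat-stopped at 95° C.; released UMP converted to ATP and read by luciferase luminescence (UMP/CMP-Glo).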

[2] = test system: Escherichia coli BW 25113; assay: Minimal Inhibitory Concentration (MIC) broth dilution assay, E. coli BW 25113; type: cell-based; conditions: Escherichia coli, BW25113, 20 hours at 35° C., CAMHB, read-out: MIC E. coli K-12 BW 25113
Summary of the method: (§1)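 Broth microdilution with twofold compound series in cation-adjusted Mueller Hinton broth, inoculum 5×10^5 CFU/mL, applied to each strain. Plates incubated 20 h at 35 °C in ambient air. MIC […] recorded as the lowest concentration with no visible growth, read by eye.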

[3] = test system: Escherichia coli ATCC 25922; assay: Minimal Inhibitory Concentration (MIC) broth dilution assay, E. coli ATCC 25922; type: cell-based; conditions: Escherichia coli, ATCC25922, 20 h, read-out: MIC E. coli ATCC 25922
Summary of the method: as §1

[4] = test system: Klebsiella pneumonia ATCC 43816; assay: Minimal Inhibitory Concentration (MIC) broth dilution assay, K. pneumonia ATCC 43816; type: cell-based; conditions: Klebsiella pneumoniae, ATCC43816, 20 hours at 35° C., CAMHB, read-out: MIC K. p ATCC 43816
Summary of the method: as §1

[5] = Human microsome stability assay; type: in vitro ADME; conditions: human liver microsomes 0.5 mg/mL, 37° C., pH 7.4, NADPH regenerating system
Summary of the method: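 Compound […] with 0.5 mg/mL human liver microsomal protein in 100 mM potassium phosphate pH 7.4, 10 min preincubation at 37 °C, started with NADPH regenerating system. Sampled 0–30 min, remaining compound by LC-MS/MS; clearance binned low <7, medium 7–16.2, high >16.2 mL/min/kg.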

[6] = test system: efflux-deficient Escherichia coli strains; conditions: reported in Bioorganic Chemistry (2020), 102, 104055; cited from earlier work
[7] = test system: LPS synthesis pathway; conditions: reported in Bioorganic Chemistry (2020), 102, 104055; cited from earlier work

SMILES | IC50 [1] [nM] | MIC [2] [µg/mL] | MIC [3] [µg/mL] | MIC [4] [µg/mL] | Clearance of Human microsome [5] [mL/min/kg] | antibiotic activity against efflux-deficient Escherichia coli strains [6] | LPS synthesis pathway inhibition activity [7]
NCCCNC(=O)C1CC2C(C1)C2C(F)(F)c1cc(Cl)nc(N2CCN(S(=O)(=O)c3ccc(N4C[C@H](N)CC4=O)cc3)CC2)c1 (stereo partly drawn) [Example 055, N-(3-aminopropyl)-6-[[2-chloro-6-[4-[4-[(4R)-4-amino-2-oxo-pyrrolidin-1-yl]phenyl]sulfonylpiperazin-1-yl]-4-pyridyl]-difluoro-methyl]bicyclo[3.1.0]hexane-3-carboxamide] | 9.01 | 0.55 (≈ 0.826 µM) | 0.85 (≈ 1.28 µM) | 0.55 (≈ 0.826 µM) | 8.58 |  | 
NCCCNC(=O)[C@H]1CC[C@H](C(F)(F)c2cc(Cl)nc(N3CCN(S(=O)(=O)c4ccc(N5C[C@H](N)CC5=O)cc4)CC3)c2)CC1 [Example 056, Trans-N-(3-aminopropyl)-4-[[2-chloro-6-[4-[4-[(4R)-4-amino-2-oxo-pyrrolidin-1-yl]phenyl]sulfonylpiperazin-1-yl]-4-pyridyl]-difluoro-methyl]cyclohexanecarboxamide] | 5.99 | 1.1 (≈ 1.65 µM) | 1.2 (≈ 1.8 µM) | 1.1 (≈ 1.65 µM) | 11.37 |  | 
NCC1CN(C(=O)[C@H]2CC[C@H](C(F)(F)c3cc(Cl)nc(N4CCN(S(=O)(=O)c5ccc(N6C[C@H](N)CC6=O)cc5)CC4)c3)CC2)C1 [Example 057] | 2.94 | 1.1 (≈ 1.62 µM) | 1.1 (≈ 1.62 µM) | 1.1 (≈ 1.62 µM) | 6.15 |  | 
NCCCNC(=O)[C@H]1CC[C@H](C(F)(F)c2cc(Cl)nc(N3CCN(S(=O)(=O)c4ccc(N5C[C@@H](CO)OC5=O)cc4)CC3)c2)CC1 [Example 058, Trans-N-(3-aminopropyl)-4-[[2-chloro-6-[4-[4-[(5S)-5-(hydroxymethyl)-2-oxo-oxazolidin-3-yl]phenyl]sulfonylpiperazin-1-y1]-4-pyridyl]-difluoro-methyl]cyclohexanecarboxamide] | < 2.92 | 0.29 (≈ 0.423 µM) | 1.1 (≈ 1.61 µM) | 1.1 (≈ 1.61 µM) | 8.04 |  | 
NCCCNC(=O)[C@H]1CC[C@H](C(F)(F)c2cc(Cl)nc(N3CCN(S(=O)(=O)c4ccc(N5C[C@H](CO)OC5=O)cc4)CC3)c2)CC1 [Example 059, Trans-N-(3-aminopropyl)-4-[[2-chloro-6-[4-[4-[(5R)-5-(hydroxymethyl)-2-oxo-oxazolidin-3-yl]phenyl]sulfonylpiperazin-1-yl]-4-pyridyl]-difluoro-methyl]cyclohexanecarboxamide] | < 2.92 | 1.2 (≈ 1.75 µM) | 1.2 (≈ 1.75 µM) | 1.2 (≈ 1.75 µM) | 6.15 |  | 
NCCCNC(=O)[C@H]1CC[C@H](C(F)(F)c2cc(Cl)nc(N3CCN(S(=O)(=O)c4ccc(N5CC(N6CCNCC6)CC5=O)cc4)CC3)c2)CC1 (stereo partly drawn) [Example 060, Trans-N-(3-aminopropyl)-4-[[2-chloro-6-[4-[4-(2-oxo-4-piperazin-1-yl-pyrrolidin-1-yl)phenyl]sulfonylpiperazin-1-y1]-4-pyridyl]-difluoro-methyl]cyclohexanecarboxamide] | < 2.71 | 2.4 (≈ 3.26 µM) | 1.8 (≈ 2.44 µM) | 1.2 (≈ 1.63 µM) | 8.12 |  | 
NCCCNC(=O)[C@H]1CC[C@H](C(F)(F)c2cc(Cl)nc(N3CCN(S(=O)(=O)c4ccc(N5C[C@H](N)CC5=O)nc4)CC3)c2)CC1 [Example 061, Trans-N-(3-aminopropyl)-4-[[2-chloro-6-[4-[[6-[(4R)-4-amino-2-oxo-pyrrolidin-1-yl]-3-pyridyl]sulfonyl]piperazin-1-yl]-4-pyridyl]-difluoro-methyl]cyclohexanecarboxamide] | 2.99 | 1.1 (≈ 1.64 µM) | 1.1 (≈ 1.64 µM) | 1.1 (≈ 1.64 µM) | 6.15 |  | 
NCCNCCNC(=O)[C@H]1CC[C@H](C(F)(F)c2cc(Cl)nc(N3CCN(S(=O)(=O)c4ccc(N5C[C@H](N)CC5=O)cc4)CC3)c2)CC1 [Example 072, Trans-N-[2-(2-aminoethylamino)ethyl]-4-[[2-chloro-6-[4-[4-[(4R)-4-amino-2-oxo-pyrrolidin-1-yl]phenyl]sulfonylpiperazin-1-yl]-4-pyridyl]-difluoro-methyl]cyclohexanecarboxamide] | 4.3 | 0.57 (≈ 0.817 µM) | 1.1 (≈ 1.58 µM) | 1.1 (≈ 1.58 µM) | 6.15 |  | 
C[N+](C)(CCN)CCNC(=O)[C@H]1CC[C@H](C(F)(F)c2cc(Cl)nc(N3CCN(S(=O)(=O)c4ccc(N5C[C@H](N)CC5=O)cc4)CC3)c2)CC1 [Example 073, Trans-2-aminoethyl-[2-[[4-[[2-chloro-6-[4-[4-[(4R)-4-amino-2-oxo-pyrrolidin-1-yl]phenyl]sulfonylpiperazin-1-yl]-4-pyridyl]-difluoro-methyl]cyclohexanecarbonyl]amino]ethyl]-dimethyl-ammonium] | < 2.75 | 1.2 | 1.2 | 2.4 | 6.15 |  | 
NCC[N+]1(CCNC(=O)[C@H]2CC[C@H](C(F)(F)c3cc(Cl)nc(N4CCN(S(=O)(=O)c5ccc(N6C[C@H](N)CC6=O)cc5)CC4)c3)CC2)CCCC1 [Example 074, Trans-N-[2-[1-(2-aminoethyl)pyrrolidin-1-ium-1-yl]ethyl]-4-[[2-[4-[4-[(4R)-4-amino-2-oxo-pyrrolidin-1-yl]phenyl]sulfonylpiperazin-1-yl]-6-chloro-4-pyridyl]-difluoro-methyl]cyclohexanecarboxamide] | 39.9 | 1.9 | 1.9 | 1.9 | 6.15 |  | 
NCC(=O)NCCNC(=O)[C@H]1CC[C@H](C(F)(F)c2cc(Cl)nc(N3CCN(S(=O)(=O)c4ccc(N5C[C@H](N)CC5=O)cc4)CC3)c2)CC1 [Example 075, Trans-N-[2-[(2-aminoacetyl)amino]ethyl]-4-[[2-chloro-6-[4-[4-[(4R)-4-amino-2-oxo-pyrrolidin-1-yl]phenyl]sulfonylpiperazin-1-yl]-4-pyridyl]-difluoro-methyl]cyclohexanecarboxamide] | 8.44 | 2.3 (≈ 3.23 µM) | 2.3 (≈ 3.23 µM) | 1.2 (≈ 1.69 µM) | 10.47 |  | 
COC(CN)CNC(=O)[C@H]1CC[C@H](C(F)(F)c2cc(Cl)nc(N3CCN(S(=O)(=O)c4ccc(N5C[C@H](N)CC5=O)cc4)CC3)c2)CC1 (stereo partly drawn) [Example 076, Trans-N-(3-amino-2-methoxy-propyl)-4-[[2-chloro-6-[4-[4-[(4R)-4-amino-2-oxo-pyrrolidin-1-yl]phenyl]sulfonylpiperazin-1-yl]-4-pyridyl]-difluoro-methyl]cyclohexanecarboxamide] | < 2.86 | 1.1 (≈ 1.58 µM) | 1.1 (≈ 1.58 µM) | 1.1 (≈ 1.58 µM) | 9.06 |  | 
CC(=O)N1CCc2cc(S(=O)(=O)N3CCN(c4cc(Cl)cc(C(F)(F)F)c4)CC3)ccc21 [JH-LPH-33, reference compound] | 293 | > 24 | > 24 | > 24 | 20.94 | antibiotic activity | LPS synthesis pathway inhibition activity
